Data published in patent US20130331442A1, “Combination Therapy for Cancer” (FINVECTOR VISION THERAPIES LTD, priority 2011, published 2013).
Entries after “also recorded” stand apart in the source; their conditions may differ.

Tests used:
[1] = WBC and platelet counts in rats; assay type: in vivo, rat
rat glioma model = conditions: TMZ therapy alone, in vivo experiments
Protocol: A study was conducted concerning tumour growth rate in a rat glioma model.

BT4C cell line = assay: in vitro cytotoxicity of TMZ on BT4C cell line; assay type: cell-based
From the text: However, both in vitro and in vivo experiments there were no effect with TMZ therapy alone, implicating that other mechanism of resistance are in operation.
The efficacy of TMZ is known to be affected by different DNA repair activities (Kaina, 2003; Kaina et al., 2007; Parkinson et al., 2008; Takagi et al., 2003; Takagi et al., 2008) and by the presence of functional p53 activity (Blough et al. (2010) J Neurooncol.).

| Compound | WBC counts [1] | platelet counts [1] | effect of therapy in vivo (rat glioma model) | cytotoxicity (BT4C cell line; BT4C cells first treated with AdHSV-tk/GCV, TMZ in high concentration) | effect of treatment in vitro (cytotoxicity) (BT4C cell line; BT4C cells, TMZ alone, up to 1000 μM) |
| --- | --- | --- | --- | --- | --- |
| Nc1nc(O)c2ncn(COC(CO)CO)c2n1 [GCV, Ganciclovir] | did not reduce these values significantly | did not reduce these values significantly | – | – | – |
| Cn1nnc2c(C(N)=O)ncn2c1=O [TMZ, Temozolomide] | profound adverse effect | profound adverse effect | no effect | started to demonstrate cytotoxicity | no effect; also recorded: does not respond to the treatment |
